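All cell lines were grown in 96-well plates and treated with compound for 48 hours. At the GI50, growth is halved.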 The source made the active and inactive calls. No stated cut-off is given here; in the data, active = GI50 up to about 1.1 µM and inactive = higher.
Legend:
Experiment in all cases: NCI-60 cell line screen, 48 h
[1] = tested on: A498
[2] = tested on: CCRF-CEM
[3] = tested on: EKVX
[4] = tested on: HCT-116
[5] = tested on: HOP-62
[6] = tested on: Hs-578T
[7] = tested on: IGROV-1
[8] = tested on: LOX IMVI
[9] = tested on: M14
[10] = tested on: MDA-MB-435
[11] = tested on: MOLT-4
[12] = tested on: Malme-3M
[13] = tested on: NCI-H226
[14] = tested on: OVCAR-4
[15] = tested on: RPMI-8226
[16] = tested on: SK-MEL-2
[17] = tested on: SK-MEL-5
[18] = tested on: TK-10
[19] = tested on: UACC-257
[20] = tested on: UO-31

Measured: GI50

CCOC(=O)C(C(=O)OCC)=C1NC2(c3ccccc3Nc3ccc(C)cc32)C(C(=O)OC)S1 (stereo not given)
inactive: [1] 10.1 µM | [2] 15.1 µM | [3] 8.36 µM | [4] 9.64 µM | [5] 80 µM | [6] 10.3 µM | [7] 18.4 µM | [8] 33.5 µM | [9] 27.6 µM | [10] 30.5 µM | [11] 5.58 µM | [12] 22.5 µM | [13] 29.9 µM | [14] 21.9 µM | [15] 8.93 µM | [16] 14.7 µM | [17] 13.9 µM | [18] 46.9 µM | [19] 26.4 µM | [20] 16.5 µM

COC(=O)/C=C/C(=O)Nc1cc(Cl)c(Cl)cc1CC(=O)N(C)[C@H]1CCCC[C@@H]1N1CCCC1
inactive: [1] 14.4 µM | [2] 2.79 µM | [3] 13.1 µM | [4] 6.5 µM | [5] 16.9 µM | [6] 18.1 µM | [7] 7.21 µM | [8] 5.3 µM | [9] 7.41 µM | [10] 5.61 µM | [11] 3.18 µM | [12] 6.41 µM | [13] 15.3 µM | [14] 8.63 µM | [15] 2.63 µM | [16] 7.29 µM | [17] 8.67 µM | [18] 2.29 µM | [19] 3.05 µM | [20] 4.52 µM

Cc1cc2ccc(OC(=O)c3ccc(NC(=N)N)cc3)cc2oc1=O
inactive: [1] 21.2 µM | [2] 30.5 µM | [3] 30.5 µM | [4] 24.1 µM | [5] 18.7 µM | [6] 25.9 µM | [7] 55 µM | [8] 30.8 µM | [9] 28.8 µM | [10] 20 µM | [11] 22.9 µM | [12] 22 µM | [13] 26.4 µM | [14] 16.6 µM | [15] 22.2 µM | [16] 25.4 µM | [17] 43.8 µM | [18] 22.5 µM | [19] 35.2 µM | [20] 52.4 µM

O=C1CSC(/C(=C\c2ccc(Cl)cc2)c2nc3ccccc3[nH]2)=N1
inactive: [1] 4.19 µM | [2] 27.6 µM | [3] 17 µM | [4] 16 µM | [5] 1.94 µM | [6] 18.7 µM | [7] 10.1 µM | [8] 15.8 µM | [9] 22.6 µM | [10] 17.9 µM | [11] 51.8 µM | [12] 16.7 µM | [13] 6.93 µM | [14] 16.1 µM | [15] 33.8 µM | [16] 17.9 µM | [17] 12.1 µM | [18] 11.8 µM | [19] 16.2 µM | [20] 3.03 µM

COC(OC)C1OC(CO)C(n2cc(C)c(=O)[nH]c2=O)C1O (stereo not given)
inactive: [1] > 100 µM | [2] > 100 µM | [3] > 100 µM | [4] > 100 µM | [5] > 100 µM | [6] > 100 µM | [7] > 100 µM | [8] > 100 µM | [9] > 100 µM | [10] > 100 µM | [11] > 100 µM | [12] > 100 µM | [13] > 100 µM | [14] > 100 µM | [15] > 100 µM | [16] > 100 µM | [17] > 100 µM | [18] > 100 µM | [19] > 100 µM | [20] > 100 µM

— ChEMBL document CHEMBL1201862, “PubChem BioAssay data set” (2004)
